target: T1, recombinant human AKR1C3 (Homo sapiens, UniProt P42330); test: AKR1C3-inhibitory activity assay (generation of Coumberol from Coumberone); format: biochemical; settings: Coumberone 0.3 μM, NADPH 10 μM, 22° C., typically 90 min, average or median values
T1 construct: GST (cleaved yes); made in house; host or cells: E. coli
T1 sequence (P42330 1-323): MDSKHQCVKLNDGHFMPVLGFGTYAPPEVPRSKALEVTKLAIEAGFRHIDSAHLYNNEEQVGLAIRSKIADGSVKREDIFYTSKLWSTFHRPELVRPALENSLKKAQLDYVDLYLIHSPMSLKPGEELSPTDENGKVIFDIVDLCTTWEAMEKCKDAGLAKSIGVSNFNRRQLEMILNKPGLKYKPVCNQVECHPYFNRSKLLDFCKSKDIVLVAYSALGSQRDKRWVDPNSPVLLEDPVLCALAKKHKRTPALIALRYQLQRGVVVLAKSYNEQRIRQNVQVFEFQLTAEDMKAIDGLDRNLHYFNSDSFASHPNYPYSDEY
Method: The AKR1C3-inhibitory activity of the substances of the present invention was measured in the AKR1C3 assay described in the paragraphs below.
Essentially, the enzyme activity is measured by quantification of the generation of Coumberol from Coumberone (Halim et al. J. AM. CHEM. SOC. 2008, 130:14123-14128 and Yee et al. Proc. Natl. Acad. Sci. USA 2006, 103:13304-13309). In this test, the increase of the highly fluorescent Coumberol by NADPH- (nicotinamide adenine dinucleotide phosphate)-dependent reduction of the non-fluorescent Coumberone by AKR1C3 was determined.
The enzyme used was recombinant human AKR1C3 (Aldo-keto reductase family 1 member C3; GenBank Accession No. NM_003739). This was expressed in E. coli as GST (glutathione S transferase) fusion protein and purified by glutathione Sepharose affinity chromatography. The GST was removed by digestion with thrombin and subsequent size exclusion chromatography (Dufort, I., Rheault, P., Huang, X F., Soucy, P., and Luu-The, V., Endocrinology 140, 568-574 (1999)).
For the assay, 50 nl of a 100-fold concentrated solution of the test substance in DMSO were pipetted into a black low-volume 384-well microtiter plate (Greiner Bio-One, Frickenhausen, Germany), 2.5 μl of a solution of AKR1C3 in assay buffer [50 mM potassium phosphate buffer pH 7, 1 mM DTT, 0.0022% (w/v) Pluronic F-127, 0.01% BSA (w/v) and protease inhibitor cocktail (Complete, EDTA-free Protease Inhibitor Cocktail from Roche)] were added and the mixture was incubated for 15 min to allow pre-binding of the substances to the enzyme prior to the enzyme reaction. The enzyme reaction was then started by addition of 2.5 μl of a solution of NADPH (20 μM→final concentration in 5 μl of assay volume is 10 μM) and Coumberone (0.6 μM→final concentration in 5 μl of assay volume is 0.3 μM) in assay buffer, and the resulting mixture was incubated at 22° C. for the reaction time of typically 90 min. The concentration of the AKR1C3 and the reaction time was adapted to the respective activity of the enzyme preparation and adjusted such that the assay was carried out in the linear range. Typical AKR1C3 concentrations were in the region of 1 nM. The reaction was stopped by addition of 2.5 μl of a stop solution consisting of 3 μM EM-1404 as inhibitor (U.S. Pat. No. 6,541,463) in 50 mM HEPES pH7.5 (3 μM EM-1404→final concentration in 7.5 μl of assay volume is 1 μM). The fluorescence of the Coumberole was then measured at 520 nm (excitation at 380 nm) using a suitable measuring instrument (Pherastar from BMG Labtechnologies). The intensity of the fluorescence was used as a measure of the amount of Coumberole formed and thus of the enzyme activity of AKR1C3. The data were normalized (enzyme reaction without inhibitor=0% inhibition; all other assay components, but no enzyme=100% inhibition).

Compound	IC50 [nM]
CC1(C)CN(C(=O)c2c[nH]nn2)CCN1S(=O)(=O)c1cccc(C(F)(F)F)c1 [Example 28, (3,3-dimethyl-4-{[3-(trifluoromethyl)phenyl]sulfonyl}piperazin-1-yl)(1H-1,2,3-triazol-4-yl)methanone]	3
CC1(C)CN(C(=O)c2c[nH]nn2)CCN1S(=O)(=O)c1cc(F)cc(F)c1 [Example 29, {4-[(3,5-difluorophenyl)sulfonyl]-3,3-dimethylpiperazin-1-yl}(1H-1,2,3-triazol-4-yl)methanone]	11
CC1(C)CN(C(=O)c2cnn[nH]2)CCN1S(=O)(=O)c1ccc(F)cc1 [Example 30, {4-[(4-fluorophenyl)sulfonyl]-3,3-dimethylpiperazin-1-yl}(1H-1,2,3-triazol-5-yl)methanone]	71
Cc1ccccc1S(=O)(=O)N1CCN(C(=O)c2cnn[nH]2)CC1(C)C [Example 31, {3,3-dimethyl-4-[(2-methylphenyl)sulfonyl]piperazin-1-yl}(1H-1,2,3-triazol-5-yl)methanone]	5
CC1(C)CN(C(=O)c2cnn[nH]2)CCN1S(=O)(=O)c1ccccc1Cl [Example 32, {4-[(2-chlorophenyl)sulfonyl]-3,3-dimethylpiperazin-1-yl}(1H-1,2,3-triazol-5-yl)methanone]	15
Cc1cccc(S(=O)(=O)N2CCN(C(=O)c3cnn[nH]3)CC2(C)C)c1 [Example 33, {3,3-dimethyl-4-[(3-methylphenyl)sulfonyl]piperazin-1-yl}(1H-1,2,3-triazol-5-yl)methanone]	10
CC1(C)CN(C(=O)c2cnn[nH]2)CCN1S(=O)(=O)c1ccccc1F [Example 34, {4-[(2-fluorophenyl)sulfonyl]-3,3-dimethylpiperazin-1-yl}(1H-1,2,3-triazol-5-yl)methanone]	16
CC1(C)CN(C(=O)c2cnn[nH]2)CCN1S(=O)(=O)c1c(F)cccc1F [Example 35, {4-[(2,6-difluorophenyl)sulfonyl]-3,3-dimethylpiperazin-1-yl}(1H-1,2,3-triazol-5-yl)methanone]	46
CC1(C)CN(C(=O)c2cnn[nH]2)CCN1S(=O)(=O)c1ccc(F)c(F)c1 [Example 36, {4-[(3,4-difluorophenyl)sulfonyl]-3,3-dimethylpiperazin-1-yl}(1H-1,2,3-triazol-5-yl)methanone]	26
CC1(C)CN(C(=O)c2cnn[nH]2)CCN1S(=O)(=O)c1cc(F)ccc1F [Example 37, {4-[(2,5-difluorophenyl)sulfonyl]-3,3-dimethylpiperazin-1-yl}(1H-1,2,3-triazol-5-yl)methanone]	8
C[C@@H]1CN(C(=O)c2c[nH]nn2)C[C@H](C)N1S(=O)(=O)c1ccccc1 [Example 38, [(3R,5S)-3,5-dimethyl-4-(phenylsulfonyl)piperazin-1-yl](1H-1,2,3-triazol-4-yl)methanone]	14
C[C@@H]1CN(C(=O)c2cnn[nH]2)C[C@H](C)N1S(=O)(=O)c1cccc(Cl)c1 [Example 39, {(3R,5S)-4-[(3-chlorophenyl)sulfonyl]-3,5-dimethylpiperazin-1-yl}(1H-1,2,3-triazol-5-yl)methanone]	3
C[C@@H]1CN(C(=O)c2cnn[nH]2)C[C@H](C)N1S(=O)(=O)c1cc(Cl)cc(Cl)c1 [Example 40, {(3R,5S)-4-[(3,5-dichlorophenyl)sulfonyl]-3,5-dimethylpiperazin-1-yl}(1H-1,2,3-triazol-5-yl)methanone]	2
C[C@@H]1CN(C(=O)c2cnn[nH]2)C[C@H](C)N1S(=O)(=O)c1cccc(F)c1 [Example 41, {(3R,5S)-4-[(3-fluorophenyl)sulfonyl]-3,5-dimethylpiperazin-1-yl}(1H-1,2,3-triazol-5-yl)methanone]	9
C[C@@H]1CN(C(=O)c2cnn[nH]2)C[C@H](C)N1S(=O)(=O)c1cc(F)cc(F)c1 [Example 42, {(3R,5S)-4-[(3,5-difluorophenyl)sulfonyl]-3,5-dimethylpiperazin-1-yl}(1H-1,2,3-triazol-5-yl)methanone]	9

Continued, values first:

IC50 [nM]	Compound
2	C[C@@H]1CN(S(=O)(=O)c2cc(Cl)ccc2Cl)C[C@H](C)N1C(=O)c1c[nH]nn1 [Example 43, {(2R,6S)-4-[(2,5-dichlorophenyl)sulfonyl]-2,6-dimethylpiperazin-1-yl}(1H-1,2,3-triazol-4-yl)methanone]
48	C[C@@H]1CN(S(=O)(=O)c2ccc(F)cc2)C[C@H](C)N1C(=O)c1c[nH]nn1 [Example 44, {(2R,6S)-4-[(4-fluorophenyl)sulfonyl]-2,6-dimethylpiperazin-1-yl}(1H-1,2,3-triazol-4-yl)methanone]
1	Cc1ccccc1S(=O)(=O)N1C[C@@H](C)N(C(=O)c2c[nH]nn2)[C@@H](C)C1 [Example 45, {(2R,6S)-2,6-dimethyl-4-[(2-methylphenyl)sulfonyl]piperazin-1-yl}(1H-1,2,3-triazol-4-yl)methanone]
2	C[C@@H]1CN(S(=O)(=O)c2ccccc2Cl)C[C@H](C)N1C(=O)c1c[nH]nn1 [Example 46, {(2R,6S)-4-[(2-chlorophenyl)sulfonyl]-2,6-dimethylpiperazin-1-yl}(1H-1,2,3-triazol-4-yl)methanone]
2	C[C@@H]1CN(S(=O)(=O)c2ccccc2C(F)(F)F)C[C@H](C)N1C(=O)c1c[nH]nn1 [Example 47, [(2R,6S)-2,6-dimethyl-4-{[2-(trifluoromethyl)phenyl]sulfonyl}piperazin-1-yl](1H-1,2,3-triazol-4-yl)methanone]
3	C[C@@H]1CN(S(=O)(=O)c2cccc(Cl)c2)C[C@H](C)N1C(=O)c1c[nH]nn1 [Example 48, {(2R,6S)-4-[(3-chlorophenyl)sulfonyl]-2,6-dimethylpiperazin-1-yl}(1H-1,2,3-triazol-4-yl)methanone]
6	Cc1cccc(S(=O)(=O)N2C[C@@H](C)N(C(=O)c3c[nH]nn3)[C@@H](C)C2)c1 [Example 49, {(2R,6S)-2,6-dimethyl-4-[(3-methylphenyl)sulfonyl]piperazin-1-yl}(1H-1,2,3-triazol-4-yl)methanone]
3	C[C@@H]1CN(S(=O)(=O)c2cccc(Br)c2)C[C@H](C)N1C(=O)c1c[nH]nn1 [Example 50, {(2R,6S)-4-[(3-bromophenyl)sulfonyl]-2,6-dimethylpiperazin-1-yl}(1H-1,2,3-triazol-4-yl)methanone]
6	C[C@@H]1CN(S(=O)(=O)c2ccccc2F)C[C@H](C)N1C(=O)c1c[nH]nn1 [Example 51, {(2R,6S)-4-[(2-fluorophenyl)sulfonyl]-2,6-dimethylpiperazin-1-yl}(1H-1,2,3-triazol-4-yl)methanone]
9	C[C@@H]1CN(S(=O)(=O)c2cccc(F)c2)C[C@H](C)N1C(=O)c1c[nH]nn1 [Example 52, {(2R,6S)-4-[(3-fluorophenyl)sulfonyl]-2,6-dimethylpiperazin-1-yl}(1H-1,2,3-triazol-4-yl)methanone]
9	C[C@@H]1CN(S(=O)(=O)c2c(F)cccc2F)C[C@H](C)N1C(=O)c1c[nH]nn1 [Example 53, {(2R,6S)-4-[(2,6-difluorophenyl)sulfonyl]-2,6-dimethylpiperazin-1-yl}(1H-1,2,3-triazol-4-yl)methanone]
118	C[C@@H]1CN(S(=O)(=O)c2cccc(C#N)c2)C[C@H](C)N1C(=O)c1c[nH]nn1 [Example 54, 3-{[(3R,5S)-3,5-dimethyl-4-(1H-1,2,3-triazol-4-ylcarbonyl)piperazin-1-yl]sulfonyl}benzonitrile]
